Patent US9493727B2 (priority 2010, dated 2016)
Where “and” joins values, the source holds several entries; their conditions need not be identical. Equal entries are not always repeated.

What was measured:
[1] = type: physicochemical

Row | Compound | Adjuvant 1 h, emulsion stability, mL separation [mL] | Anionic 1 h, emulsion stability, mL separation [mL] | Nonionic 1 h, emulsion stability, mL separation [mL] | Adjuvant 24 h, emulsion stability, mL separation [mL] | Anionic 24 h, emulsion stability, mL separation [mL] | % Separation 1 h (C = cream) [1] | % Separation 24 h (C = cream) ([1]; 24 h) | Nonionic 24 h, emulsion stability, mL separation [mL] | % Separation 24 h (O = oil separated) ([1]; 24 h)
1 | C[N+](C)([O-])CCCNC(=O)CCCCCCC/C=C/CCCCCCCC(=O)NCCC[N+](C)(C)[O-] [Mix-29, C18 DiDMAPA DiAO] | 0 | 0 | 0 | 0 | 0 |  |  |  | 
2 | CN(C)CCCNC(=O)CCCCCCC/C=C/CCCCCCCC(=O)NCCCN(C)C [Mix-26, C18 DiDMAPA Amide] |  | 0 |  |  | 0 |  |  |  | 
3 | CCCCCCCC(CCCCCCCC(=O)NCCCN(C)C)S(=O)(=O)[O-].[Na+] (centres unmarked) [Sample C16-11, C16-DMAPA Sulfonate] |  |  |  |  |  | 3.1 C % and 2.8 C % | 4 C % and 3.6 C % |  | 
4 | CN(C)CCCNC(=O)CCCCCCCCC(CCCCCCCC(=O)NCCCN(C)C)S(=O)(=O)[O-].[Na+] (centres unmarked) [Sample C18-68, C18 diDMAPA Amide Sulfonate] | 0 | 0 |  | 0 | 0 |  |  |  | 
5 | CCCC(CCCCCCCC(=O)NCCC[N+](C)(C)[O-])S(=O)(=O)[O-].[Na+] (centres unmarked) [Sample C12-21, C12 DMAPA AO Sulfonate] | 0 | 0 |  | 0 | 0 |  |  |  | 
6 | C=CCCCCCCCC(=O)NCCC[N+](C)(C)[O-] [Sample C10-20, C10 DMAPA AO] | 0 | 0 | 1 | 0 | 0 |  |  | 1 | 
7 | C16 DMAPA Sulfonate AO [Sample C16-12] | 0 | 0 | 0.4 | 0 | 0 |  |  | 0.5 | 
8 | CCCC(CCCCCCCC(=O)NCCCN(C)C)S(=O)(=O)[O-].[Na+] (centres unmarked) [Sample C12-42, C12 DMAPA Sulfonate] |  |  |  |  |  | 3 C % | 3.1 C % and 3.3 C % |  | 
9 | C[N+](C)([O-])CCCNC(=O)CCCCCCCCC(CCCCCCCC(=O)NCCC[N+](C)(C)[O-])S(=O)(=O)[O-].[Na+] (centres unmarked) [Sample C18-30, C18 DiDMAPA DiAO Sulfonate] | 0 | 0 |  | 0 | 0 | 3.9 C % and 3.1 C % | 3.5 C, 0.5 O % and 3.6 C % |  | 3.5 C, 0.5 O %
